The target in assay [1] is T1, TEC (Homo sapiens, UniProt P42680).
T1 construct: purchased Reaction Biology Corp
T1 sequence (P42680 1-631): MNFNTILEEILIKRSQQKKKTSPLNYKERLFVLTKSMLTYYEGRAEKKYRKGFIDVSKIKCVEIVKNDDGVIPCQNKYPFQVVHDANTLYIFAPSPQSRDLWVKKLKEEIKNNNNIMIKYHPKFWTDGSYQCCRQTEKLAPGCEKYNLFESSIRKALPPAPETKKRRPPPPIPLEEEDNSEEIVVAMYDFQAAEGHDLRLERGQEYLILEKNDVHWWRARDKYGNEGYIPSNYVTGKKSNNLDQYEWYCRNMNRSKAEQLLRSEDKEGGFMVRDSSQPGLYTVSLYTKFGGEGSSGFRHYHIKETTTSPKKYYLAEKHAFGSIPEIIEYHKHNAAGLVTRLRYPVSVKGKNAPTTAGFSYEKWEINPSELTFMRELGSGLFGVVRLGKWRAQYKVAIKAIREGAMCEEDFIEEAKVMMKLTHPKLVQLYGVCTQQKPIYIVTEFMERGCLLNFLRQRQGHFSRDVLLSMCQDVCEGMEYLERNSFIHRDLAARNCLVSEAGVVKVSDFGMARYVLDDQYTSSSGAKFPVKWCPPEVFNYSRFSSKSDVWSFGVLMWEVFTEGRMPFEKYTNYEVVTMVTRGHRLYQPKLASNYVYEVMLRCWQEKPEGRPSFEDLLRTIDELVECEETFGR
The assay is described as follows: HotSpot kinase profiling. It counts as biochemical. The method in brief: (§1)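 Radiometric kinase assay with P81 filter capture; each kinase was added to fresh substrate plus cofactors in reaction buffer and incubated 2 h at room temperature. Unreacted phosphate was washed off with 0.1% phosphoric acid before detection; percent inhibition is relative to DMSO control, averaged over replicates.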

In assay [2] the target is T2, NEK1 (Homo sapiens, UniProt Q96PY6).
T2 construct: purchased Reaction Biology Corp
T2 sequence (Q96PY6 1-1258): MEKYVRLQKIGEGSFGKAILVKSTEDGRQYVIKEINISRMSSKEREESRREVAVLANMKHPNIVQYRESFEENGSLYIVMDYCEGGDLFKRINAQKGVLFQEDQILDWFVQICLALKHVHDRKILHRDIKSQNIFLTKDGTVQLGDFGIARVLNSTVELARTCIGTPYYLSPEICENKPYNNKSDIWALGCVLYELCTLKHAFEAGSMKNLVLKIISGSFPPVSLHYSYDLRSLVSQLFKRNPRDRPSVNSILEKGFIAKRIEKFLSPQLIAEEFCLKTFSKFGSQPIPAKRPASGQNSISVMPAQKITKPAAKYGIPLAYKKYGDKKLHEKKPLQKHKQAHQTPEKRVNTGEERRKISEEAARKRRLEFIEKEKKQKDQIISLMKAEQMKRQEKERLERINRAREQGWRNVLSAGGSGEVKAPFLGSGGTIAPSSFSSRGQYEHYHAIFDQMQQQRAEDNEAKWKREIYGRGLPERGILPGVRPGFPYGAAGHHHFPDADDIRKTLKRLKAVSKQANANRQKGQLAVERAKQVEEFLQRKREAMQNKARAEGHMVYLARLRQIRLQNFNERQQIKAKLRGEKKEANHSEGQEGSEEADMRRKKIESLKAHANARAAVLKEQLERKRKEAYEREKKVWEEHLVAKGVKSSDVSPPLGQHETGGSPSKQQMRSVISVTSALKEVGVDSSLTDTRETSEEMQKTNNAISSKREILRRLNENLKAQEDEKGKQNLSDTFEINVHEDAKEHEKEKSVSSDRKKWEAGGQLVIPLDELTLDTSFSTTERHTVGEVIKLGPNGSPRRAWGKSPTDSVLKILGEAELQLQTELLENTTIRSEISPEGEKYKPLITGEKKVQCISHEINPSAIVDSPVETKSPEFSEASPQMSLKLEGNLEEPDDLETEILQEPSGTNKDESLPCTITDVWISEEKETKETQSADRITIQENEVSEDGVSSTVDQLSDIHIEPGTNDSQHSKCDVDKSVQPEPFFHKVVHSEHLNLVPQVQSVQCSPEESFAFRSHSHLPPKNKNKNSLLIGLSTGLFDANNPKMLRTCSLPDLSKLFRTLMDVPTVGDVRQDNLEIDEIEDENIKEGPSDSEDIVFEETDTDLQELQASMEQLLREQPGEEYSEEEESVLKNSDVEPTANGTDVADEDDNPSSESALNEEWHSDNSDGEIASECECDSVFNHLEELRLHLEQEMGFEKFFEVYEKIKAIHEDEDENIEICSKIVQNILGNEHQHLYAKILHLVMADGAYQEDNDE
The assay is described as follows: HotSpot kinase profiling. It counts as biochemical. The method, boiled down: as §1

[3] abbreviates: read-out: % Enzyme Activity (relative to DMSO controls) Run 1.
Setting [4] is: read-out: % Enzyme Activity (relative to DMSO controls) Run 2.

Molecules are shown by their SMILES. Like-named read-outs stand apart in the source and are kept apart here.

As for `C=CC(=O)Nc1cccc(Nc2nc(Nc3ccc(OCCOC)c(F)c3)ncc2F)c1` [Compound 2], the figures for the inhibition at 3 µM in assay [1] and in assay [2] were 89.1% and 46.6%, respectively. Besides, the remaining activity at 3 µM turned out to be 10.4% in assay [1] (setting [3]), 11.5% in assay [1] (setting [4]), 52.7% in assay [2] (setting [3]) and 54% in assay [2] (setting [4]).

(Values after patent publication US9492471B2, “Methods of treating a disease or disorder associated with Bruton'S Tyrosine Kinase” (Celgene Avilomics Research, Inc., priority 2013, dated 2016).)
